# What was measured:
# Nitric oxide synthase 3 = biological target: T1, Nitric oxide synthase 3 (Homo sapiens, UniProt P29474); experiment: The compound was evaluated for the inhibitory potencies using human Endothelial nitric oxide synthase
# T1 sequence (P29474 whole entry): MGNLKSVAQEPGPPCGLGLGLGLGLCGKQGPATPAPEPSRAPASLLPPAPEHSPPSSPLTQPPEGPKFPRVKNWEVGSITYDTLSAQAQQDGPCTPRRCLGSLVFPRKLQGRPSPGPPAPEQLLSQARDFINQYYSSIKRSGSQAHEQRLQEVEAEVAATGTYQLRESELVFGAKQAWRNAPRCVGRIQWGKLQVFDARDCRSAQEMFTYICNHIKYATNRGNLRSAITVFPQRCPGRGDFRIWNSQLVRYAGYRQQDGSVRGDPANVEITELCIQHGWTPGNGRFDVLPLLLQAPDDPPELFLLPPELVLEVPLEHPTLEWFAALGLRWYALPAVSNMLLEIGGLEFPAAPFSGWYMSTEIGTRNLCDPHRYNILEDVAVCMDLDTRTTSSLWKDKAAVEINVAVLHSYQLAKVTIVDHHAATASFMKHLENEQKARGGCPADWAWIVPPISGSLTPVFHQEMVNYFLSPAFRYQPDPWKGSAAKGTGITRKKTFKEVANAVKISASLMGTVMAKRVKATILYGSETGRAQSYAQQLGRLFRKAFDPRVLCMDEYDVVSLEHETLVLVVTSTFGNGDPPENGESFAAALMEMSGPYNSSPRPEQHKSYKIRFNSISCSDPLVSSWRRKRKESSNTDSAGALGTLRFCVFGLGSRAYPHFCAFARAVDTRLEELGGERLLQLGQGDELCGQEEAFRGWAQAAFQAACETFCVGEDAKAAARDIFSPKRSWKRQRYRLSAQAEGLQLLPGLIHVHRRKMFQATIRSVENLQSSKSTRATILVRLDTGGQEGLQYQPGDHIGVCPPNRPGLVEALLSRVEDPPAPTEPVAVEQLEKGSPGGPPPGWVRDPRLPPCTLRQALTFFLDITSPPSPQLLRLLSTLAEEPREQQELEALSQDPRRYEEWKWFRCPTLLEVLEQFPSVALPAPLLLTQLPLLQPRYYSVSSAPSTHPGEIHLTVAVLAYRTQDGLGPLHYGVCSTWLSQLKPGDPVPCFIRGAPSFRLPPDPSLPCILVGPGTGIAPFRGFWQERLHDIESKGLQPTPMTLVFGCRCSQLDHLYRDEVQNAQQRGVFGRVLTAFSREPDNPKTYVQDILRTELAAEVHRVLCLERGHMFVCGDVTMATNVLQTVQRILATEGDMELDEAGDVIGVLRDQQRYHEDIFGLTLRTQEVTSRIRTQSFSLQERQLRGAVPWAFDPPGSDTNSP
# [1] = biological target: Nitric oxide synthase, inducible (Homo sapiens, UniProt P35228); experiment: The compound was evaluated for the inhibitory potencies using human Inducible nitric oxide synthase (hiNOS)
# [2] = Partition coefficient measured by octanol/water extraction at pH 6.8; assay type: physicochemical
# Chain of Nitric oxide synthase, inducible (P35228 whole entry): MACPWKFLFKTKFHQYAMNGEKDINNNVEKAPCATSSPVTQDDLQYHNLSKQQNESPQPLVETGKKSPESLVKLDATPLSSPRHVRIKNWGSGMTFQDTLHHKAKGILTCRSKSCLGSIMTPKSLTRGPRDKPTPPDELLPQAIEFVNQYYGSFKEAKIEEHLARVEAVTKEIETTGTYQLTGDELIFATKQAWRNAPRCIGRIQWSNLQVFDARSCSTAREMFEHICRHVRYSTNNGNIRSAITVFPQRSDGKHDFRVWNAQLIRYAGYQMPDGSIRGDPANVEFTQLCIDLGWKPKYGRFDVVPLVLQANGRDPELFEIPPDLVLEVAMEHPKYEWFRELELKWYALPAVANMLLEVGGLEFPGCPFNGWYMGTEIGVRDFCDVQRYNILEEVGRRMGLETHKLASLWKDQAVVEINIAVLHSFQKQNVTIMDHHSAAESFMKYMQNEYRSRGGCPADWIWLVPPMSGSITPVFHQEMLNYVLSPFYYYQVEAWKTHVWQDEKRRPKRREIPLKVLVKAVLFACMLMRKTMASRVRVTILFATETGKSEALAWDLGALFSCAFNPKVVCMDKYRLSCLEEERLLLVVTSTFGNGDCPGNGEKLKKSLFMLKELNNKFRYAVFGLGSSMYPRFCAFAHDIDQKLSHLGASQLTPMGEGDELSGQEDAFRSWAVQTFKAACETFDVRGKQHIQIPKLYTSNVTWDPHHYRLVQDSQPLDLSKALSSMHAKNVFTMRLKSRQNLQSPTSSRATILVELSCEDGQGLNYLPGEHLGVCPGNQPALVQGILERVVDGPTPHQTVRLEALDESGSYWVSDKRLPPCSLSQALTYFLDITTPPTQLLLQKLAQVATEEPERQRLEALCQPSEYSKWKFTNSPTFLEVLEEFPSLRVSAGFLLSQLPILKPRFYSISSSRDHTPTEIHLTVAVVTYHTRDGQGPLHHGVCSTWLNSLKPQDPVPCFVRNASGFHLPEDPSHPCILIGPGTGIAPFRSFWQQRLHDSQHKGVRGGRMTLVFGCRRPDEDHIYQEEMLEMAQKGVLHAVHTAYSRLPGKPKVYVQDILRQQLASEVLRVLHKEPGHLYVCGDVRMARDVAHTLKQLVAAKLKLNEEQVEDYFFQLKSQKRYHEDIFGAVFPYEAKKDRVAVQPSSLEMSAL
SMILES,IC50 (Nitric oxide synthase 3),IC50 [1],logD [2]
N=C(N)SCCF,1260 nM,140 nM,–
[11CH3]SC(=N)N,–,–,-0.04

# — ChEMBL document CHEMBL1129456, “Synthesis and evaluation of two positron-labeled nitric oxide synthase inhibitors, S-[11C]methylisothiourea and S-(2-[18F]fluoroethyl)isothiourea, as potential positron emission tomography tracers” (J Med Chem, 1996)
